# Experimental data as given in the supplement of paper PMC10307832.
# Assays:
# Assay in all cases: relative viability (nuclei count vs DMSO), 5 days (fraction); higher = more cells survive
# [1] = compound: C1COCCN1C2=NC(=NC3=C2OC4=C3C=CC=N4)C5=CC(=CC=C5)NC(=O)C6=CN=C(C=C6)N
# Procedure, shortened: (§1)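 Five library-drug doses spaced by √10 were pinned onto vehicle-anchored 1536-well plates of lung cancer cell lines that had been kept overnight at 37 °C. Cells went 5 days without medium change, then were fixed, permeabilised and Hoechst-stained together, imaged at 4× and counted by MetaXpress. Viability is the ratio of treated-well to vehicle-well nuclei, taken as a median over plates. Plates required control CV below 25% and at least one doubling.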
# [2] = compound: CN1CCC(CNc2ccc3ncc(-c4cccc(OC(F)(F)F)c4)n3n2)CC1 [SGI-1776]
# Procedure, shortened: as §1
# [3] = compound: Nc1ccccc1NC(=O)c1ccc(CNC(=O)OCc2cccnc2)cc1 [Entinostat]
# Procedure, shortened: as §1
# [4] = compound: CN1CCC(CNc2ccc3ncc(-c4cccc(OC(F)(F)F)c4)n3n2)CC1 [SGI-1776] + C[C@@H](Oc1cc(-c2cnn(C3CCNCC3)c2)cnc1N)c1c(Cl)ccc(F)c1Cl [Crizotinib] (partner 1 µM)
# Procedure, shortened: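 Values are medians from duplicate plates. Each reflects relative viability, defined as the nuclei count of treated wells over that of vehicle wells. Lung cancer cell lines in 1536-well plates were pin-tool dosed one day after seeding with one drug alone or with a fixed anchor-drug dose plus five library-drug doses (not always all listed) in √10 steps, then fixed, stained and imaged at 4× after 5 days.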
cell line,measurement,setting,value
NCI-H2085,relative viability,[1]; 0.02 µM,0.936
same,relative viability,[1]; 0.06325 µM,1.03
same,relative viability,[1]; 0.2 µM,1.01
same,relative viability,[1]; 0.6325 µM,0.946
same,relative viability,[1]; 2 µM,0.75
same,relative viability,[2]; 0.08 µM,0.95
same,relative viability,[2]; 0.8 µM,1.07
same,relative viability,[2]; 2.53 µM,1.03
same,relative viability,[2]; 8 µM,0.9
same,relative viability,[3]; 0.02 µM,0.98
same,relative viability,[3]; 0.06325 µM,0.974
same,relative viability,[3]; 0.2 µM,1
same,relative viability,[3]; 0.6325 µM,0.756
same,relative viability,[3]; 2 µM,0.559
same,relative viability,[4]; first compound 0.08 µM,0.858
same,relative viability,[4]; first compound 0.8 µM,0.767
same,relative viability,[4]; first compound 2.53 µM,0.853
same,relative viability,[4]; first compound 8 µM,0.71
NCI-H2087,relative viability,[1]; 0.02 µM,1.06
same,relative viability,[1]; 0.06325 µM,1.22
same,relative viability,[1]; 0.2 µM,1.06
same,relative viability,[1]; 0.6325 µM,0.956
same,relative viability,[1]; 2 µM,0.65
same,relative viability,[2]; 0.08 µM,1.2
same,relative viability,[2]; 0.8 µM,1.08
same,relative viability,[2]; 2.53 µM,0.995
same,relative viability,[2]; 8 µM,0.956
same,relative viability,[3]; 0.02 µM,1.02
same,relative viability,[3]; 0.06325 µM,0.983
same,relative viability,[3]; 0.2 µM,0.981
same,relative viability,[3]; 0.6325 µM,0.49
same,relative viability,[3]; 2 µM,0.345
same,relative viability,[4]; first compound 0.08 µM,0.724
same,relative viability,[4]; first compound 0.8 µM,0.907
same,relative viability,[4]; first compound 2.53 µM,1.19
same,relative viability,[4]; first compound 8 µM,0.758
NCI-H2126,relative viability,[1]; 0.02 µM,0.985
same,relative viability,[1]; 0.06325 µM,0.981
same,relative viability,[1]; 0.2 µM,1.01
same,relative viability,[1]; 0.6325 µM,1.01
same,relative viability,[1]; 2 µM,0.745
same,relative viability,[2]; 0.08 µM,0.967
same,relative viability,[2]; 0.8 µM,1.06
same,relative viability,[2]; 2.53 µM,0.983
same,relative viability,[2]; 8 µM,0.91
same,relative viability,[3]; 0.02 µM,1.04
same,relative viability,[3]; 0.06325 µM,1.06
same,relative viability,[3]; 0.2 µM,0.951
same,relative viability,[3]; 0.6325 µM,0.618
same,relative viability,[3]; 2 µM,0.503
same,relative viability,[4]; first compound 0.08 µM,1.01
same,relative viability,[4]; first compound 0.8 µM,1.04
same,relative viability,[4]; first compound 2.53 µM,1.08
same,relative viability,[4]; first compound 8 µM,0.968
NCI-H2170,relative viability,[1]; 0.02 µM,1
same,relative viability,[1]; 0.06325 µM,1.07
same,relative viability,[1]; 0.2 µM,1.06
same,relative viability,[1]; 0.6325 µM,0.995
same,relative viability,[1]; 2 µM,0.773
same,relative viability,[2]; 0.08 µM,0.947
same,relative viability,[2]; 0.8 µM,1
same,relative viability,[2]; 2.53 µM,0.961
same,relative viability,[2]; 8 µM,0.893
same,relative viability,[3]; 0.02 µM,0.995
same,relative viability,[3]; 0.06325 µM,0.996
same,relative viability,[3]; 0.2 µM,0.984
same,relative viability,[3]; 0.6325 µM,0.708
same,relative viability,[3]; 2 µM,0.525
same,relative viability,[4]; first compound 0.08 µM,1.13
same,relative viability,[4]; first compound 0.8 µM,1.28
same,relative viability,[4]; first compound 2.53 µM,1.17
same,relative viability,[4]; first compound 8 µM,0.969
NCI-H2228,relative viability,[1]; 0.02 µM,0.899
same,relative viability,[1]; 0.06325 µM,1.16
same,relative viability,[1]; 0.2 µM,1.01
same,relative viability,[1]; 0.6325 µM,0.92
same,relative viability,[1]; 2 µM,0.418
same,relative viability,[2]; 0.08 µM,0.966
same,relative viability,[2]; 0.8 µM,1.02
same,relative viability,[2]; 2.53 µM,0.808
same,relative viability,[2]; 8 µM,0.71
same,relative viability,[3]; 0.02 µM,0.852
same,relative viability,[3]; 0.06325 µM,1.01
same,relative viability,[3]; 0.2 µM,0.944
same,relative viability,[3]; 0.6325 µM,0.625
same,relative viability,[3]; 2 µM,0.359
same,relative viability,[4]; first compound 0.08 µM,0.523
same,relative viability,[4]; first compound 0.8 µM,0.417
same,relative viability,[4]; first compound 2.53 µM,0.396
same,relative viability,[4]; first compound 8 µM,0.15
NCI-H2347,relative viability,[1]; 0.02 µM,0.983
same,relative viability,[1]; 0.06325 µM,1.09
same,relative viability,[1]; 0.2 µM,1.09
same,relative viability,[1]; 0.6325 µM,0.977
same,relative viability,[1]; 2 µM,0.741
same,relative viability,[2]; 0.08 µM,1.13
same,relative viability,[2]; 0.8 µM,1.08
same,relative viability,[2]; 2.53 µM,1.02
same,relative viability,[2]; 8 µM,0.963
same,relative viability,[3]; 0.02 µM,1.03
same,relative viability,[3]; 0.06325 µM,0.992
same,relative viability,[3]; 0.2 µM,0.91
same,relative viability,[3]; 0.6325 µM,0.521
same,relative viability,[3]; 2 µM,0.366
same,relative viability,[4]; first compound 0.08 µM,0.687
same,relative viability,[4]; first compound 0.8 µM,0.637
same,relative viability,[4]; first compound 2.53 µM,0.772
same,relative viability,[4]; first compound 8 µM,0.511
NCI-H2405,relative viability,[1]; 0.02 µM,0.987
same,relative viability,[1]; 0.06325 µM,1.05
same,relative viability,[1]; 0.2 µM,0.97
same,relative viability,[1]; 0.6325 µM,0.953
same,relative viability,[1]; 2 µM,0.779
same,relative viability,[2]; 0.08 µM,1.04
same,relative viability,[2]; 0.8 µM,1.08
same,relative viability,[2]; 2.53 µM,0.793
same,relative viability,[2]; 8 µM,0.826
same,relative viability,[3]; 0.02 µM,1.03
same,relative viability,[3]; 0.06325 µM,1.15
same,relative viability,[3]; 0.2 µM,0.972
same,relative viability,[3]; 0.6325 µM,0.915
same,relative viability,[3]; 2 µM,0.609
same,relative viability,[4]; first compound 0.08 µM,0.857
same,relative viability,[4]; first compound 0.8 µM,0.809
same,relative viability,[4]; first compound 2.53 µM,0.854
same,relative viability,[4]; first compound 8 µM,0.642
